Test results published in ChEMBL document CHEMBL5050844 (2019).

What was measured:
[1] = Induction of anti-CD3 antibodies-stimulated human CD8+ T cell activation at 1.11 uM assessed fold increase in cell proliferation measured by flow cytometry analysis; assay type: functional, T cell line; further: reference of the scale not given here
[2] = Induction of anti-CD3 antibodies-stimulated human CD8+ T cell activation at 10 uM assessed fold increase in cell proliferation measured by flow cytometry analysis; assay type: functional, T cell line; further: reference of the scale not given here
[3] = Induction of anti-CD3/CD28 antibodies-stimulated human T cell activation at 4 uM assessed fold increase in IL-2 secretion measured by ELISA assay; assay type: functional, T cell line
[4] = Induction of anti-CD3 antibodies-stimulated human T cell activation at 10 uM assessed fold increase in GM-CSF secretion measured by ELISA assay; assay type: functional, T cell line; further: reference of the scale not given here
[5] = Induction of anti-CD3/CD28 antibodies-stimulated human T cell activation at 4 uM assessed fold increase in CD25 expression measured by ELISA assay; assay type: functional, T cell line
[6] = Induction of anti-CD3 antibodies-stimulated human T cell activation at 1.11 uM assessed fold increase in GM-CSF secretion measured by ELISA assay; assay type: functional, T cell line; further: reference of the scale not given here
B cell = test: Induction of anti-IgM-stimulated human CD20+ B cell activation at 10 to 1000 uM assessed as increase in CD69 expression measured as mean fluorescence intensity AUC by flow cytometry analysis; assay type: functional, cell-based; conditions: dose 10-1000 µM
[7] = Induction of anti-CD3 antibodies-stimulated human T cell activation at 1 uM assessed fold increase in IL-2 secretion measured by ELISA assay; assay type: functional, T cell line; further: reference of the scale not given here
[8] = Induction of anti-CD3 antibodies-stimulated human exhausted T cell activation assessed fold increase in IFN-gamma secretion measured by ELISA assay; assay type: functional, T cell line; further: reference of the scale not given here
[9] = Induction of anti-CD3/CD28 antibodies-stimulated human T cell activation at 10 uM assessed fold increase in GM-CSF secretion measured by ELISA assay; assay type: functional, T cell line
[10] = Induction of anti-CD3/CD28 antibodies-stimulated human T cell activation at 1 uM assessed fold increase in IL-2 secretion measured by ELISA assay; assay type: functional, T cell line
[11] = Induction of anti-CD3 antibodies-stimulated human CD8+ T cell activation at 10 uM assessed fold increase in CD69 expression measured by flow cytometry analysis; assay type: functional, T cell line; further: reference of the scale not given here
[12] = Induction of anti-CD3/CD28 antibodies-stimulated human T cell activation at 1.11 uM assessed fold increase in TNF-alpha secretion measured by ELISA assay; assay type: functional, T cell line
[13] = Induction of anti-CD3/CD28 antibodies-stimulated human anergic T cell activation at 10 uM assessed fold increase in IFN-gamma secretion measured by ELISA assay; assay type: functional, T cell line
[14] = Induction of anti-CD3 antibodies-stimulated human exhausted CD4+ T cell activation assessed fold increase in CTLA4 expression measured by flow cytometry analysis; assay type: functional, T cell line; further: reference of the scale not given here
[15] = Induction of anti-CD3/CD28 antibodies-stimulated human CD8+ T cell activation at 1.11 uM assessed fold increase in cell proliferation measured by flow cytometry analysis; assay type: functional, T cell line
[16] = Induction of anti-CD3 antibodies-stimulated human exhausted T cell activation assessed fold increase in GM-CSF secretion measured by ELISA assay; assay type: functional, T cell line; further: reference of the scale not given here
[17] = Induction of anti-CD3 antibodies-stimulated human exhausted T cell activation assessed fold increase in IL-2 secretion measured by ELISA assay; assay type: functional, T cell line; further: reference of the scale not given here
[18] = Induction of activation of human CD56+ CD3- NK cells co-cultured with human K562 cells in 1:1 ratio and assessed as increase in IFN-gamma secretion at 2.5 uM measured by ELISA assay; assay type: functional, Natural killer cell
[19] = Induction of anti-CD3/CD28 antibodies-stimulated human anergic T cell activation at 0.37 uM assessed fold increase in IFN-gamma secretion measured by ELISA assay; assay type: functional, T cell line
[20] = Induction of anti-CD3 antibodies-stimulated human T cell activation at 1.11 uM assessed fold increase in TNF-alpha secretion measured by ELISA assay; assay type: functional, T cell line; further: reference of the scale not given here
[21] = Induction of anti-CD3/CD28 antibodies-stimulated human CD8+ T cell activation at 10 uM assessed fold increase in CD69 expression measured by flow cytometry analysis; assay type: functional, T cell line
[22] = Induction of activation of human CD56+ CD3- NK cells co-cultured with human K562 cells in 1:1 ratio and assessed as increase in IFN-gamma secretion at 0.625 uM measured by ELISA assay; assay type: functional, Natural killer cell
[23] = Induction of anti-CD3/CD28 antibodies-stimulated human CD8+ T cell activation at 1.11 uM assessed fold increase in CD69 expression measured by flow cytometry analysis; assay type: functional, T cell line
[24] = Induction of activation of human CD56+ CD3- NK cells co-cultured with human K562 cells in 1:1 ratio and assessed as increase in TNF-alpha secretion at 10 uM measured by ELISA assay; assay type: functional, Natural killer cell
[25] = Induction of anti-CD3/CD28 antibodies-stimulated human T cell activation at 1.11 uM assessed fold increase in GM-CSF secretion measured by ELISA assay; assay type: functional, T cell line
[26] = Induction of anti-CD3 antibodies-stimulated human CD4+ T cell activation at 10 uM assessed fold increase in CD69 expression measured by flow cytometry analysis; assay type: functional, T cell line; further: reference of the scale not given here
[27] = Induction of activation of human CD56+ CD3- NK cells co-cultured with human K562 cells in 1:1 ratio and assessed as increase in TNF-alpha secretion at 0.625 uM measured by ELISA assay; assay type: functional, Natural killer cell
[28] = Induction of allogenic human T cell activation at 3 uM assessed fold increase in cell proliferation; assay type: functional, T cell line
[29] = Induction of anti-CD3/CD28 antibodies-stimulated human CD4+ T cell activation at 1.11 uM assessed fold increase in CD69 expression measured by flow cytometry analysis; assay type: functional, T cell line
[30] = Induction of anti-CD3 antibodies-stimulated human T cell activation at 1.11 uM assessed fold increase in IFN-gamma secretion measured by ELISA assay; assay type: functional, T cell line; further: reference of the scale not given here
[31] = Induction of activation of human CD56+ CD3- NK cells co-cultured with human K562 cells in 1:1 ratio and assessed as increase in IFN-gamma secretion at 10 uM measured by ELISA assay; assay type: functional, Natural killer cell
[32] = Induction of anti-CD3/CD28 antibodies-stimulated human CD4+ T cell activation at 10 uM assessed fold increase in CD69 expression measured by flow cytometry analysis; assay type: functional, T cell line
[33] = Induction of anti-CD3 antibodies-stimulated human T cell activation at 10 uM assessed fold increase in TNF-alpha secretion measured by ELISA assay; assay type: functional, T cell line; further: reference of the scale not given here
[34] = Induction of anti-CD3 antibodies-stimulated human CD8+ T cell activation at 1.11 uM assessed fold increase in CD69 expression measured by flow cytometry analysis; assay type: functional, T cell line; further: reference of the scale not given here
[35] = Induction of activation of human CD56+ CD3- NK cells co-cultured with human K562 cells in 1:1 ratio and assessed as increase in TNF-alpha secretion at 2.5 uM measured by ELISA assay; assay type: functional, Natural killer cell
[36] = Induction of anti-CD3/CD28 antibodies-stimulated human T cell activation at 1.11 uM assessed fold increase in IFN-gamma secretion measured by ELISA assay; assay type: functional, T cell line
[37] = Induction of anti-CD3/CD28 antibodies-stimulated human CD4+ T cell activation at 10 uM assessed fold increase in cell proliferation measured by flow cytometry analysis; assay type: functional, T cell line

| SMILES | fold change (FC) [1] | fold change (FC) [2] | fold change (FC) [3] | fold change (FC) [4] | fold change (FC) [5] | fold change (FC) [6] | AUC (B cell) | fold change (FC) [7] | fold change (FC) [8] | fold change (FC) [9] | fold change (FC) [10] | fold change (FC) [11] | fold change (FC) [12] | fold change (FC) [13] | fold change (FC) [14] | fold change (FC) [15] | fold change (FC) [16] | fold change (FC) [17] | fold change (FC) [18] | fold change (FC) [19] | other results |
| --- | --- | --- | --- | --- | --- | --- | --- | --- | --- | --- | --- | --- | --- | --- | --- | --- | --- | --- | --- | --- | --- |
| C[C@H](Cc1nncn1C)c1cccc(N2Cc3c(ccnc3C3CC3)C2=O)c1 | <=2 | 3.01 | 1.01 | 2.01 | 1.31 | 1.51 | 0.5 | 0.151 | >1.61 | >4 | 1.01 | 1.201 | 1.51 | 2.51 | <=1.4 | <=2 | <=1.4 | <=2.5 | 1.01 | <=2.5 | fold change (FC) [20]: <=1.5; fold change (FC) [21]: 1.201; fold change (FC) [22]: 2.01; fold change (FC) [23]: <=1.2; fold change (FC) [24]: 2.01; fold change (FC) [25]: 2.01; fold change (FC) [26]: 1.201; fold change (FC) [27]: 1.01; fold change (FC) [28]: <=2; fold change (FC) [29]: <=1.2; fold change (FC) [30]: <=2; fold change (FC) [31]: 2.01; fold change (FC) [32]: 1.401; fold change (FC) [33]: <=1.5; fold change (FC) [34]: <=1.2; fold change (FC) [35]: 1.01; fold change (FC) [36]: <=2; fold change (FC) [37]: >4 |
| Cc1n[nH]c(C)c1-c1cc2c(c(C(F)(F)F)c1)CN(c1cccc(C3(Cc4nncn4C)COC3)c1)C2=O | 3.01 | >4 | >=7.5 | 2.01 | 1.31 | 1.51 | 1.01 | 0.101 | 1.41 | 2.01 | 2.51 | 1.401 | 1.51 | >4.01 | >1.61 | 2.01 | <=1.4 | <=2.5 | 1.01 | <=2.5 | fold change (FC) [20]: <=1.5; fold change (FC) [21]: 1.201; fold change (FC) [22]: 1.01; fold change (FC) [23]: 1.201; fold change (FC) [24]: 2.01; fold change (FC) [25]: 1.51; fold change (FC) [26]: >1.601; fold change (FC) [27]: <=1; fold change (FC) [28]: <=2; fold change (FC) [29]: 1.201; fold change (FC) [30]: <=2; fold change (FC) [31]: 2.01; fold change (FC) [32]: 1.401; fold change (FC) [33]: 1.51; fold change (FC) [34]: 1.201; fold change (FC) [35]: 1.01; fold change (FC) [36]: <=2; fold change (FC) [37]: >4 |
| C[C@H](Cc1nncn1C)c1cccc(NC(=O)c2cccc(CCO)n2)c1 | <=2 | <=2 | 2.51 | 1.51 | 1.31 | <=1.5 | 1.01 | 0.051 | <=1.4 | 1.51 | 1.01 | <=1.2 | <=1.5 | 2.51 | <=1.4 | <=2 | <=1.4 | <=2.5 | 1.01 | <=2.5 | fold change (FC) [20]: <=1.5; fold change (FC) [21]: <=1.2; fold change (FC) [22]: 1.01; fold change (FC) [23]: <=1.2; fold change (FC) [24]: 1.01; fold change (FC) [25]: <=1.5; fold change (FC) [26]: 1.201; fold change (FC) [27]: <=1; fold change (FC) [28]: <=2; fold change (FC) [29]: <=1.2; fold change (FC) [30]: <=2; fold change (FC) [31]: 2.01; fold change (FC) [32]: 1.201; fold change (FC) [33]: <=1.5; fold change (FC) [34]: <=1.2; fold change (FC) [35]: 1.01; fold change (FC) [36]: <=2; fold change (FC) [37]: 3.01 |
| C[C@H](Cc1nncn1C)c1cccc(N2Cc3c(cccc3C(F)(F)F)C2=O)c1.Cl | <=2 | <=2 | 5 | <=1.5 | >=1.76 | <=1.5 | 1.01 | 0.051 | <=1.4 | 1.51 | 2.51 | <=1.2 | <=1.5 | <=2.5 | 1.41 | <=2 | <=1.4 | <=2.5 | 1.01 | <=2.5 | fold change (FC) [20]: <=1.5; fold change (FC) [21]: 1.201; fold change (FC) [22]: 1.01; fold change (FC) [23]: <=1.2; fold change (FC) [24]: <=1; fold change (FC) [25]: <=1.5; fold change (FC) [26]: <=1.2; fold change (FC) [27]: 1.01; fold change (FC) [28]: <=2; fold change (FC) [29]: <=1.2; fold change (FC) [30]: <=2; fold change (FC) [31]: 2.01; fold change (FC) [32]: 1.201; fold change (FC) [33]: <=1.5; fold change (FC) [34]: <=1.2; fold change (FC) [35]: 1.01; fold change (FC) [36]: 3.01; fold change (FC) [37]: 3.01 |
